pIC50: −log10 of the molar value. Activity calls are given as the source filed them. No cut-off for these calls is given here.
Legend:
[1] = (§1) SiHyT-mediated degrader activity at RNF149/EGFR mutant in human PC-9 cells assessed as induction of EGFR degradation cells incubated in serum-free media for 8 hrs followed by incubation with compound for 24 hrs by western blot analysis; format: cell-based
[2] = tested on: PC-9; test: as §1; format: cell-based
[3] = tested on: PC-9; test: SiHyT-mediated degrader activity at RNF149/EGFR mutant in human PC-9 cells assessed as induction of EGFR degradation by measuring decrease in EGFR level at 2 uM measured after 9 hrs by western blot analysis; format: cell-based
[4] = tested on: E3 ubiquitin-protein ligase RNF149/Epidermal growth factor receptor (Homo sapiens), P00533+Q8NC42 [UNDEFINED MUTATION]; test: SiHyT-mediated degrader activity at RNF149/EGFR mutant in human HCC827 cells assessed as induction of EGFR degradation by measuring decrease in EGFR level at 1 uM measured after 9 hrs by western blot analysis; format: cell-based
Chain of E3 ubiquitin-protein ligase RNF149/Epidermal growth factor receptor (Homo sapiens), P00533+Q8NC42 [UNDEFINED MUTATION] (P00533 whole entry, looked up, stated change not applied): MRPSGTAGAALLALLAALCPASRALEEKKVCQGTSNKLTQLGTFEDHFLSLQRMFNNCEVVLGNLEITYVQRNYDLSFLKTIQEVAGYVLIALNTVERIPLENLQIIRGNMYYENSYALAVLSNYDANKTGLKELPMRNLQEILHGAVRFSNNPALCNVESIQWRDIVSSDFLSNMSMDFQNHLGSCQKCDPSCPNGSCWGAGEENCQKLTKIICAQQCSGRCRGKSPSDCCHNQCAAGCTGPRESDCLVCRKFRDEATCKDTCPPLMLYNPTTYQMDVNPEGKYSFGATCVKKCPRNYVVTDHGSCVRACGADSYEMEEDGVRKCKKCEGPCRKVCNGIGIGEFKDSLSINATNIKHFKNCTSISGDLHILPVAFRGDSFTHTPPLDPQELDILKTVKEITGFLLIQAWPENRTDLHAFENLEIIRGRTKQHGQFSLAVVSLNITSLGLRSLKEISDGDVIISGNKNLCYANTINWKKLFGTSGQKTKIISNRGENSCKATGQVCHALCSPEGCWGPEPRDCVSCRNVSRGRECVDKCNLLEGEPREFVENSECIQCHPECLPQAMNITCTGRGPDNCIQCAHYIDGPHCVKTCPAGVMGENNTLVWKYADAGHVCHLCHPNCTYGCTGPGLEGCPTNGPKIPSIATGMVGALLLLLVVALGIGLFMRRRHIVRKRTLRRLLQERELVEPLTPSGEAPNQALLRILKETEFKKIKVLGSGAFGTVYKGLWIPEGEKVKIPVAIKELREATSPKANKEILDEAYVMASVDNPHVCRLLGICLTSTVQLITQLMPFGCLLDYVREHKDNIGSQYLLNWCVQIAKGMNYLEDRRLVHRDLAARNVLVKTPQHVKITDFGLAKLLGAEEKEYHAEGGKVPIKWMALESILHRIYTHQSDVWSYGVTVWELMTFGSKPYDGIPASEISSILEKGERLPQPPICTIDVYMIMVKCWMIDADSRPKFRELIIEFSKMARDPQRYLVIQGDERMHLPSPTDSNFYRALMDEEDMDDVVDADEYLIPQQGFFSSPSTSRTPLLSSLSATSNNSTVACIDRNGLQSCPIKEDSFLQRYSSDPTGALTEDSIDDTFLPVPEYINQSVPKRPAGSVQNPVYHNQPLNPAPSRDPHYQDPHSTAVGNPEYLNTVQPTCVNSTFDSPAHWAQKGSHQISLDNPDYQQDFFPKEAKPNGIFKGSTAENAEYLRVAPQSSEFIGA
Chain of E3 ubiquitin-protein ligase RNF149/Epidermal growth factor receptor (Homo sapiens), P00533+Q8NC42 [UNDEFINED MUTATION] (Q8NC42 whole entry, looked up, stated change not applied): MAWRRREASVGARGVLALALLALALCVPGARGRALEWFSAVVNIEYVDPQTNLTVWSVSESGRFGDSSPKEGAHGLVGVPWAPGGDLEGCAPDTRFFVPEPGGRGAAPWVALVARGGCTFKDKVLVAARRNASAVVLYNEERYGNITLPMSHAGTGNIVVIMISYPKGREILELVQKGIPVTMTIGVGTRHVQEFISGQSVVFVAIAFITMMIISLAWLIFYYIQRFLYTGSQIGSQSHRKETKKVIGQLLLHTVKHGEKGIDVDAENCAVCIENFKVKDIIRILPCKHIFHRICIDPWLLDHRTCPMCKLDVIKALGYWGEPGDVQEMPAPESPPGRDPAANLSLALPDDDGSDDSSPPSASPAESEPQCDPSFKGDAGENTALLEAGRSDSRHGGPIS

[5] = tested on: E3 ubiquitin-protein ligase RNF149/Epidermal growth factor receptor (Homo sapiens), P00533+Q8NC42 [UNDEFINED MUTATION]; test: SiHyT-mediated degrader activity at RNF149/EGFR mutant in human HCC827 cells assessed as induction of EGFR degradation by measuring decrease in EGFR level at 1 uM measured after 24 hrs by western blot analysis; format: cell-based
[6] = tested on: PC-9; test: SiHyT-mediated degrader activity at RNF149/EGFR mutant in human PC-9 cells assessed as induction of EGFR degradation by measuring EGFR expression level at 2 uM incubated for 24 hrs followed by drug wash-out and measured after 24 hrs by western blot analysis; format: cell-based
[7] = tested on: E3 ubiquitin-protein ligase RNF149/Epidermal growth factor receptor (Homo sapiens), P00533+Q8NC42 [UNDEFINED MUTATION]; test: SiHyT-mediated degrader activity at RNF149/EGFR mutant in human HCC827 cells assessed as induction of EGFR degradation by measuring EGFR expression level at 1 uM incubated for 24 hrs followed by drug wash-out and measured after 24 hrs by western blot analysis; format: cell-based
[8] = tested on: E3 ubiquitin-protein ligase RNF149/Epidermal growth factor receptor (Homo sapiens), P00533+Q8NC42 [UNDEFINED MUTATION]; test: SiHyT-mediated degrader activity at RNF149/EGFR mutant in human HCC827 cells assessed as induction of EGFR degradation by measuring decrease in EGFR expression level at 1 uM pretreated with proteasome inhibitor, MG-132 for 4 hrs followed by incubation with compound for 24 hrs by western blot analysis; format: cell-based
[9] = tested on: E3 ubiquitin-protein ligase RNF149/Epidermal growth factor receptor (Homo sapiens), P00533+Q8NC42 [UNDEFINED MUTATION]; test: SiHyT-mediated degrader activity at RNF149/EGFR mutant in human HCC827 cells assessed as induction of EGFR degradation by measuring decrease in EGFR expression level at 1 uM pretreated with E1 ligase inhibitor, PYR41 for 4 hrs followed by incubation with compound for 24 hrs by western blot analysis; format: cell-based
[10] = tested on: PC-9; test: SiHyT-mediated degrader activity at RNF149/EGFR mutant in human PC-9 cells assessed as induction of EGFR degradation by measuring decrease in half-time of EGFR at 2 uM incubated for 6 to 24 hrs in presence of protein synthesis inhibitor, cycloheximide by western blot analysis; format: cell-based; conditions: time 6-24 hrs
[11] = tested on: E3 ubiquitin-protein ligase RNF149/Epidermal growth factor receptor (Homo sapiens), P00533+Q8NC42 [UNDEFINED MUTATION]; test: SiHyT-mediated degrader activity at […] mutant in human HCC827 cells assessed as decrease in EGFR expression level at 2 uM measured after 12 hrs by proteomics analysis; format: cell-based
[12] = tested on: PC-9; test: Antiproliferative activity against human PC-9 cells assessed as decrease in cell survival measured after 72 hrs by CCK-8 assay; format: functional, cell-based; conditions: PC-9, 72 h
[13] = tested on: HCC827; test: Inhibition of colony formation in human HCC827 cells assessed as inhibition of malignant clonal growth at 0.5 to 1 uM measured after 7 days by crystal violet staining based analysis; format: functional, cell-based; conditions: dose 0.5-1 µM, time 7.0 day
[14] = tested on: PC-9; test: Induction of cell cycle arrest in human PC-9 cells assessed as increase in cell accumulation at G1 phase at 0.5 to 2 uM incubated for 24 hrs by propidium iodide staining based flow cytometry; format: functional; conditions: dose 0.5-2 µM
[15] = tested on: HCC827; test: Induction of cell cycle arrest in human HCC827 cells assessed as increase in cell accumulation at G1 phase at 0.5 to 2 uM incubated for 24 hrs by propidium iodide staining based flow cytometry; format: functional; conditions: dose 0.5-2 µM
[16] = tested on: PC-9; test: Induction of apoptosis in human PC-9 cells at 0.5 to 2 uM incubated for 48 hrs by AnnexinV-FITC/PI staining based flow cytometry; format: functional, cell-based; conditions: dose 0.5-2 µM
[17] = Half life of the compound in mouse liver microsomes at 1 uM in presence of NADPH by LC-MS/MS analysis; format: ADME, Microsome
[18] = Intrinsic clearance of the compound in mouse liver microsomes at 1 uM in presence of NADPH by LC-MS/MS analysis; format: ADME, Microsome; conditions: read-out: CLH
[19] = Intrinsic clearance of the compound in human liver microsomes at 1 uM in presence of NADPH by LC-MS/MS analysis; format: ADME, Microsome; conditions: read-out: CLH
[20] = Half life in ICR mouse at 1 mg/kg, iv by LC-MS/MS analysis; format: ADME, organism-based; conditions: in vivo
[21] = Cmax in ICR mouse at 1 mg/kg, iv by LC-MS/MS analysis; format: ADME, organism-based; conditions: in vivo
[22] = AUC in ICR mouse at 1 mg/kg, iv by LC-MS/MS analysis; format: ADME, organism-based; conditions: in vivo
[23] = MRT in ICR mouse at 1 mg/kg, iv by LC-MS/MS analysis; format: ADME, organism-based; conditions: in vivo
[24] = AUC in ICR mouse at 10 mg/kg, po by LC-MS/MS analysis; format: ADME, organism-based; conditions: in vivo
[25] = Oral bioavailability in ICR mouse at 10 mg/kg by LC-MS/MS analysis; format: ADME, organism-based; conditions: in vivo
[26] = Toxicity in mouse assessed as pathological changes in heart administered for 14 days by Hematoxylin-Eosin staining based analysis; format: tissue-based; conditions: in vivo, 336 h, time 14 day
[27] = Toxicity in mouse assessed as pathological changes in liver administered for 14 days by Hematoxylin-Eosin staining based analysis; format: tissue-based; conditions: in vivo, 336 h, time 14 day
[28] = Toxicity in mouse assessed as pathological changes in spleen administered for 14 days by Hematoxylin-Eosin staining based analysis; format: tissue-based; conditions: in vivo, 336 h, time 14 day
[29] = Toxicity in mouse assessed as pathological changes in lungs administered for 14 days by Hematoxylin-Eosin staining based analysis; conditions: in vivo, 336 h, time 14 day
[30] = Toxicity in mouse assessed as pathological changes in kidneys administered for 14 days by Hematoxylin-Eosin staining based analysis; conditions: in vivo, 336 h, time 14 day
[31] = tested on: PC-9; test: Induction of interaction between RNF149/EGFR mutant in human PC-9 cells assessed as disruption of EGFR mutant/HSP70 complex formation at 2 uM measured after 6 hrs by co-immunoprecipitation analysis; format: cell-based
[32] = tested on: PC-9; test: SiHyT-mediated degrader activity at RNF149/EGFR mutant in human PC-9 cells assessed as induction of EGFR degradation at 1 uM in presence of HSP90 inhibitor, geldanamycin by western blot analysis; format: cell-based
[33] = tested on: PC-9; test: Induction of interaction between RNF149/EGFR mutant in human PC-9 cells by pull-down based LC-MS/MS analysis; format: cell-based
[34] = tested on: PC-9; test: Binding affinity to RNF149/EGFR mutant in human PC-9 cells at 2 uM incubated for 4 hrs by CETSA analysis; format: cell-based
[35] = tested on: HEK-293T; test: Cytotoxicity against human HEK293T cells assessed as reduction in cell viability; format: toxicity, cell-based
[36] = tested on: MCF-10A; test: Cytotoxicity against human MCF-10A cells assessed as reduction in cell viability; format: toxicity, cell-based
[37] = tested on: BEAS-2B; test: Cytotoxicity against human BEAS-2B cells assessed as reduction in cell viability; format: toxicity, cell-based
[38] = tested on: HUVEC; test: Cytotoxicity against human HUVEC cells assessed as reduction in cell viability; format: toxicity, cell-based

DC50 [1]: 1420 nM | Activity [4]: Active | Activity [5]: Active | Activity [7]: inactive | Activity [8]: inactive | Activity [9]: inactive | Activity [11]: Active | half-life at 1 µM [17]: > 1 h | CLint scaled at 1 µM [18]: 21.9 mL/min/kg | CLint scaled at 1 µM [19]: 9.3 mL/min/kg | half-life [20]: 2.18 h | Cmax [21]: 2210 ng/mL | AUC [22]: 2164.76 ng·mL·h | MRT [23]: 2.72 h | AUC [24]: 1876.65 ng·mL·h | bioavailability [25]: 8.67%
Compound: COc1cc2ncnc(Nc3ccc(F)c(Cl)c3)c2cc1OCCn1cc(CCCO[Si](c2ccccc2)(c2ccccc2)C(C)(C)C)nn1
Activity [2]: Dose-dependent-effect | Activity [3]: Active | Activity [6]: inactive | Activity [10]: Active | pIC50 [12]: 6.47 | inhibition [13]: Active | Activity [14]: Dose-dependent-effect | Activity [15]: Dose-dependent-effect | Activity [16]: Dose-dependent-effect | Activity [26]: Non-toxic | Activity [27]: Non-toxic | Activity [28]: Non-toxic | Activity [29]: Non-toxic | Activity [30]: Non-toxic | Activity [31]: inactive | Activity [32]: Active | Activity [33]: Active | Activity [34]: Active | Activity [35]: Toxic | Activity [36]: Toxic | Activity [37]: Toxic | Activity [38]: Toxic

Source: ChEMBL document CHEMBL6074674, “Development of Novel Silicon-Based Hydrophobic Tags (SiHyT) for Targeted Proteins Degradation” (J Med Chem, 2024)
